According to ChEMBL document CHEMBL1131721, “Adenosine-5'-carboxylic acid peptidyl derivatives as inhibitors of protein kinases” (Bioorg Med Chem Lett, 1999):
Residues, ends and D or L forms follow the SMILES beside them. *: point of attachment. X1 = Nc1ncnc2c1ncn2C1O[C@H](C(=O)*)[C@@H](O)[C@H]1O; Ahx = NCCCCCC(=O)O

Experiments:
CaM kinase I alpha = molecular target: T1, CaM kinase I alpha (Zea mays, UniProt O04417); assay: Inhibition of Calcium-dependent protein kinase 1 (CDPK-1) from maize seedlings
T1 sequence (O04417 whole entry): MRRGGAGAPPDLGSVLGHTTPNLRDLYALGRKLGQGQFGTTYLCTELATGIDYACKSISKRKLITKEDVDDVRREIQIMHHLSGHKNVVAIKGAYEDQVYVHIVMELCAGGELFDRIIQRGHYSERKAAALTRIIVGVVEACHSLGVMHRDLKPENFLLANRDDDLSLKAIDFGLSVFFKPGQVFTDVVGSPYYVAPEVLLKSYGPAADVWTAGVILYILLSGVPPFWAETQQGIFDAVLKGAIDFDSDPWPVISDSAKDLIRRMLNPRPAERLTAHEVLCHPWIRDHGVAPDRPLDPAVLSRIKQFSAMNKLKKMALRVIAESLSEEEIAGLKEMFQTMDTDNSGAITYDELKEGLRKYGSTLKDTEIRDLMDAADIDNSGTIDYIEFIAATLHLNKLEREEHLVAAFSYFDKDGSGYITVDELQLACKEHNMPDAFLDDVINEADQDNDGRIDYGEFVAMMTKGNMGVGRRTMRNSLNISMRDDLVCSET

[1] = Inhibition of murine Protein kinase A at 100 uM (No inhibition); parameters: species or system Mus musculus
[2] = Inhibition of Casein kinase 2 from rat liver at 100 uM (No inhibition)
[3] = Inhibition of Casein kinase 1 from rat liver
[4] = Inhibition of murine Protein kinase A; parameters: species or system Mus musculus
[5] = Inhibition of Casein kinase 2 from rat liver

Which IC50 (CaM kinase I alpha) does the source give for NC(N)=NCCC[C@@H](N)C(=O)N[C@H](CCCN=C(N)N)C(=O)N[C@H](CCCN=C(N)N)C(=O)N[C@H](CCCN=C(N)N)C(=O)N[C@H](CCCN=C(N)N)C(=O)N[C@H](CCCN=C(N)N)C(=O)O here?
The IC50 was over 50 µM.

And the IC50 [1]?
Its IC50 is “Not Active”.

And the IC50 [2]?
The IC50 was “Not Active”.

And the IC50 [3]?
Its IC50 is over 100 µM.

Which IC50 (CaM kinase I alpha) does the source give for N=C(N)NCCC[C@@H](NC(=O)[C@@H](CCCNC(=N)N)NC(=O)CCCCCNC(=O)[C@H]1OC(n2cnc3c(N)ncnc32)[C@H](O)[C@@H]1O)C(=O)O (stereo partly specified) here?
The IC50 was 35 µM.

Which IC50 (CaM kinase I alpha) does the source give for N=C(N)NCCC[C@H](NC(=O)[C@H](CCCNC(=N)N)NC(=O)[C@H](CCCNC(=N)N)NC(=O)[C@H](CCCNC(=N)N)NC(=O)[C@H](CCCNC(=N)N)NC(=O)[C@H](CCCNC(=N)N)NC(=O)CCCCCNC(=O)[C@H]1OC(n2cnc3c(N)ncnc32)[C@H](O)[C@@H]1O)C(=O)O (stereo partly specified) here?
The IC50 was 1.2 µM.

What about the IC50 [4] of the same molecule?
Its IC50 is 0.12 µM.

And the IC50 ([5]; read-out: IC50)?
The IC50 was over 30 µM.

What about the IC50 [3] of the same molecule?
Its IC50 is over 30 µM.

What does the source list for C[C@H](NC(=O)CCNC(=O)CCNC(=O)[C@H]1OC(n2cnc3c(N)ncnc32)[C@H](O)[C@@H]1O)C(=O)N[C@@H](CCCNC(=N)N)C(=O)N[C@@H](CCCNC(=N)N)C(=O)N[C@@H](CCCNC(=N)N)C(=O)N[C@@H](CCCNC(=N)N)C(=O)N[C@@H](CCCNC(=N)N)C(=O)N[C@@H](CCCNC(=N)N)C(=O)O (stereo partly specified)?
IC50 (CaM kinase I alpha): 16 µM; IC50 [4]: 4.3 µM; IC50 [5]: ≥ 30 µM; IC50 [3]: > 100 µM

For N=C(N)NCCC[C@H](NC(=O)[C@H](CCCNC(=N)N)NC(=O)[C@H](CCCNC(=N)N)NC(=O)[C@H](CCCNC(=N)N)NC(=O)[C@H](CCCNC(=N)N)NC(=O)[C@H](CCCNC(=N)N)NC(=O)CCCCCCCNC(=O)[C@H]1OC(n2cnc3c(N)ncnc32)[C@H](O)[C@@H]1O)C(=O)O (stereo partly specified), which IC50 (CaM kinase I alpha) is on record?
The IC50 was 3.2 µM.

And the IC50 [4]?
The IC50 was 0.24 µM.

And the IC50 ([5]; read-out: IC50)?
Its IC50 is over 30 µM.

And the IC50 [3]?
Its IC50 is over 30 µM.

Which IC50 (CaM kinase I alpha) does the source give for N=C(N)NCCC[C@H](NC(=O)[C@H](CCCNC(=N)N)NC(=O)[C@H](CCCNC(=N)N)NC(=O)[C@H](CCCNC(=N)N)NC(=O)[C@H](CCCNC(=N)N)NC(=O)[C@H](CCCNC(=N)N)NC(=O)CCCCCCCCCCNC(=O)[C@H]1OC(n2cnc3c(N)ncnc32)[C@H](O)[C@@H]1O)C(=O)O (stereo partly specified) here?
The IC50 was 4.9 µM.

What about the IC50 [2] of the same molecule?
The IC50 was “Not Active”.

What about the IC50 [4] of the same molecule?
Its IC50 is 0.33 µM.

And the IC50 [3]?
Its IC50 is over 30 µM.

What does the source list for N=C(N)NCCC[C@H](NC(=O)[C@H](CCCNC(=N)N)NC(=O)[C@H](CCCNC(=N)N)NC(=O)[C@H](CCCNC(=N)N)NC(=O)[C@H](CCCNC(=N)N)NC(=O)[C@H](CCCNC(=N)N)NC(=O)CCNC(=O)[C@H]1OC(n2cnc3c(N)ncnc32)[C@H](O)[C@@H]1O)C(=O)O (stereo partly specified)?
IC50 (CaM kinase I alpha): 38 µM; IC50 [4]: 1.8 µM; IC50 [5]: Not Active; IC50 [3]: > 30 µM

Which results are given for N=C(N)NCCC[C@H](NC(=O)[C@H](CCCNC(=N)N)NC(=O)[C@H](CCCNC(=N)N)NC(=O)[C@H](CCCNC(=N)N)NC(=O)[C@H](CCCNC(=N)N)NC(=O)[C@H](CCCNC(=N)N)NC(=O)CNC(=O)[C@H]1OC(n2cnc3c(N)ncnc32)[C@H](O)[C@@H]1O)C(=O)O (stereo partly specified)?
IC50 (CaM kinase I alpha): 67 µM; IC50 [4]: 4 µM; IC50 ([5]; read-out: IC50): > 30 µM; IC50 [3]: > 30 µM

What does the source list for N=C(N)NCCC[C@H](NC(=O)[C@H](CCCNC(=N)N)NC(=O)[C@H](CCCNC(=N)N)NC(=O)[C@H](CCCNC(=N)N)NC(=O)[C@H](CCCNC(=N)N)NC(=O)[C@H](CCCNC(=N)N)NC(=O)CCCNC(=O)[C@H]1OC(n2cnc3c(N)ncnc32)[C@H](O)[C@@H]1O)C(=O)O (stereo partly specified)?
IC50 (CaM kinase I alpha): 19 µM; IC50 [4]: 1.3 µM; IC50 ([5]; read-out: IC50): > 30 µM; IC50 [3]: > 30 µM

With C[C@H](NC(=O)C[C@H](NC(=O)C[C@H](NC(=O)[C@H]1O[C@@H](n2cnc3c(N)ncnc32)[C@H](O)[C@@H]1O)C(=O)O)C(=O)O)C(=O)N[C@@H](CCCNC(=N)N)C(=O)N[C@@H](CCCNC(=N)N)C(=O)N[C@@H](CCCNC(=N)N)C(=O)N[C@@H](CCCNC(=N)N)C(=O)N[C@@H](CCCNC(=N)N)C(=O)N[C@@H](CCCNC(=N)N)C(=O)O as the molecule, how does the IC50 (CaM kinase I alpha) read?
The IC50 was over 50 µM.

What about the IC50 [4] of the same molecule?
Its IC50 is 11.1 µM.

What about the IC50 ([5]; read-out: IC50) of the same molecule?
The IC50 was over 30 µM.

And the IC50 [3]?
The IC50 was over 30 µM.

With CC(=O)NCCCCCC(=O)N[C@@H](CCCN=C(N)N)C(=O)N[C@@H](CCCNC(=N)N)C(=O)N[C@@H](CCCNC(=N)N)C(=O)N[C@@H](CCCNC(=N)N)C(=O)N[C@@H](CCCNC(=N)N)C(=O)N[C@@H](CCCN=C(N)N)C(=O)O (stereo in doubt) as the molecule, how does the IC50 (CaM kinase I alpha) read?
The IC50 was over 50 µM.

What about the IC50 [2] of the same molecule?
Its IC50 is “Not Active”.

And the IC50 [4]?
The IC50 was over 100 µM.

And the IC50 [3]?
The IC50 was over 100 µM.

For N=C(N)NCCC[C@H](NC(=O)[C@H](CCCNC(=N)N)NC(=O)[C@H](CCCNC(=N)N)NC(=O)[C@H](CCCNC(=N)N)NC(=O)CCCCCNC(=O)[C@H]1OC(n2cnc3c(N)ncnc32)[C@H](O)[C@@H]1O)C(=O)O (stereo partly specified) ({X1-Ahx}-RRRR-OH), which IC50 (CaM kinase I alpha) is on record?
Its IC50 is 52 µM.

With Nc1ncnc2c1ncn2[C@@H]1O[C@H](CO)[C@@H](O)[C@H]1O [ADENOSINE] as the molecule, how does the IC50 (CaM kinase I alpha) read?
The IC50 was 116 µM.

And the IC50 [4]?
The IC50 was 141 µM.

What about the IC50 ([5]; read-out: IC50) of the same molecule?
Its IC50 is over 300 µM.

What about the IC50 [3] of the same molecule?
Its IC50 is 126 µM.
